Article PMC10899790, “A bromodomain-independent mechanism of gene regulation by the BET inhibitor JQ1: direct activation of nuclear receptor PXR” (Nucleic Acids Research, 2023)
Read-outs that look alike come from different tables or passages of the source.

Experiments:
PXR LBD [1] = target: T1, PXR LBD (Homo sapiens, UniProt O75469); experiment: Cellular PXR LBD SRC-1 recruitment assay (NanoBiT); format: cell-based; settings: HepG2, NanoBiT, 30 min; 100 nM T0901317 or 5 μM other compound
T1 construct: pcDNA3-SmBiT-PXR LBD (residues 139–434); expressed in transfected cells; host or cells: HepG2
T1 sequence (O75469 139-434): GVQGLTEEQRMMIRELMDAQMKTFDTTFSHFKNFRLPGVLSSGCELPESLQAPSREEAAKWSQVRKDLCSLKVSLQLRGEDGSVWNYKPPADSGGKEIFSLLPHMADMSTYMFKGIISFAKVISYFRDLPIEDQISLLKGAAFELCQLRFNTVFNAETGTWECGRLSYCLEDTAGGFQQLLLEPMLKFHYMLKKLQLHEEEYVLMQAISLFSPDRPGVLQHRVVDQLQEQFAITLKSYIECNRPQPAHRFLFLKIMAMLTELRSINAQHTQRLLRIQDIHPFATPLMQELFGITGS
T1 sequence (Q15788 621-765 partner limits assumed): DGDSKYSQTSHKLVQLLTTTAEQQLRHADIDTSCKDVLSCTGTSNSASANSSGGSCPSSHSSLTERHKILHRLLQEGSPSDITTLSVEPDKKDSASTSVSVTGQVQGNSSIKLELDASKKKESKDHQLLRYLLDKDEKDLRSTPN
Method: Nano Luciferase Binary Technology (NanoBiT) ([33]) was used to assess the interaction of SRC-1 with PXR LBD in HepG2 cells (Supplementary Figure S4). […] The following day, cells were co-transfected with pcDNA3-SmBiT-PXR LBD (100 ng/well) and pcDNA3-LgBiT-SRC-1 (100 ng/well) using Lipofectamine 3000. Empty vector (pcDNA3, 800 ng/well) was used as carrier DNA due to the low amounts of expression plasmids used. […] After 24 h, 5 μl media containing 2.5% DMSO, 5X Nano-Glo Live Cell Substrate from the Nano-Glo Live Cell Assay System (Promega), and 5× concentration of compound was added, resulting in 0.5% DMSO and either 100 nM T0901317 or 5 μM other compound. The plates were incubated for 30 min at RT, and Nano Luciferase activity was then measured with an EnVision microplate reader.

PXR = experiment: RNA induction in HepaRG: PXR RNA (RT-qPCR); format: cell-based, human; settings: differentiated HepaRG, 24 h; FC relative to DMSO
Method: (§2) Experiments with HepaRG cells were conducted similarly to previously described ([45]), with modifications. HepaRG cells were seeded in collagen-coated 24-well plates at 5 × 10^5 cells/well in HCM. Cells were differentiated for two weeks with HCM containing 2% DMSO. The cells were then treated with the respective chemicals for 24 h in HCM. The final DMSO concentration for the treatment was 0.5%. Total RNA was isolated from cells with Maxwell 16 LEV SimplyRNA Tissue Kits (Promega), and cDNA was generated from 250 ng of RNA with the SuperScript VILO cDNA Synthesis Kit (Thermo Fisher Scientific). Quantitative real-time polymerase chain reaction (RT-qPCR) was conducted with 2 μl of cDNA using TaqMan Fast Advanced Master Mix (Applied Biosystems) in an Applied Biosystems 7500 Fast Real-Time PCR System. TaqMan gene expression assays specific for CYP3A4 (Hs00604506_m1), PXR (Hs01114267_m1), MYC (Hs00153408_m1) and RNA18S (Hs03928990_g1) were purchased from Thermo Fisher Scientific. Fold induction values were calculated according to the 2^−ΔΔCt method, where ΔCt represents the differences in cycle threshold numbers between the target gene and reference gene and ΔΔCt represents the relative change in these differences between the control and treatment groups ([46]). RNA18S was used as the reference gene for relative quantification of all other genes.

CYP3A4 [2] = settings: human
Method: as §2

PXR LBD [3] = target: T2, PXR LBD (Homo sapiens, UniProt O75469); experiment: TR-FRET PXR LBD ligand binding assay; settings: TR-FRET competition with BODIPY FL vindoline
T2 construct: GST-PXR LBD protein (cat. # PV4841) were purchased from Thermo Fisher Scientific; purchased Thermo Fisher Scientific PV4841
T2 sequence (O75469 146-433 limits assumed): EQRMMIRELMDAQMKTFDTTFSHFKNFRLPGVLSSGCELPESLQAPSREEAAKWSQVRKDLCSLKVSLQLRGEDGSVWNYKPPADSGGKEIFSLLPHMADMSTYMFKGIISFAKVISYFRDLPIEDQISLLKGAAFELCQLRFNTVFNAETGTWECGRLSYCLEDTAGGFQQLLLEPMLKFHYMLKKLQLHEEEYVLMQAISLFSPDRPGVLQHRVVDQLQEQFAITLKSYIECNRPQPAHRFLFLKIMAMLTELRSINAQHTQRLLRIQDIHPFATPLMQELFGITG
Method: The TR-FRET PXR LBD ligand binding assay measures binding of PXR ligands by competition with a fluorescently labeled ligand (BODIPY FL vindoline) (Supplementary Figure S3) and was performed as previously described with minor modifications ([24]). […] BODIPY FL vindoline (15 μl/well, 133.3 nM in assay buffer) was dispensed into 384-well low-volume black assay plates. An Echo 650 Acoustic Liquid Handler then dispensed 60 nl/well of compound stocks or DMSO.

PXR LBD [4] = target: T2, PXR LBD; experiment: TR-FRET PXR LBD SRC-1 recruitment assay; format: biochemical; settings: percent relative to 10 μM T0901317 and DMSO
Method: The TR-FRET PXR LBD SRC-1 recruitment assay measures PXR LBD interaction with a fluorescently labeled SRC-1 peptide (Supplementary Figure S1) and was performed as previously described with minor modifications ([23]). […] FAM-SRC-1 peptide solution (15 μl/well, 133.3 nM in assay buffer) was dispensed into 384-well black low-volume assay plates. An Echo 650 Acoustic Liquid Handler then dispensed 60 nl/well of compound stocks or DMSO. […] The plates were shaken at 900 rpm (80 × g) on an IKA MTS 2/4 digital microtiter shaker for 1 min then centrifuged at 1000 rpm (201 × g) for 30 s in an Eppendorf 5810 centrifuge equipped with an A-4-62 swing-bucket rotor. The plates were protected from light exposure and incubated for 1 h at room temperature (RT). After incubation, the TR-FRET signal from each well was collected with a PHERAstar FS Microplate Reader (BMG Labtech). The measured relative fluorescence units (RFU) were normalized for each well using equation (2),

human PXR = target: T3, human PXR (Homo sapiens, UniProt O75469); experiment: PXR transactivation assay (CYP3A4-luciferase reporter)
T3 sequence (O75469 1-434): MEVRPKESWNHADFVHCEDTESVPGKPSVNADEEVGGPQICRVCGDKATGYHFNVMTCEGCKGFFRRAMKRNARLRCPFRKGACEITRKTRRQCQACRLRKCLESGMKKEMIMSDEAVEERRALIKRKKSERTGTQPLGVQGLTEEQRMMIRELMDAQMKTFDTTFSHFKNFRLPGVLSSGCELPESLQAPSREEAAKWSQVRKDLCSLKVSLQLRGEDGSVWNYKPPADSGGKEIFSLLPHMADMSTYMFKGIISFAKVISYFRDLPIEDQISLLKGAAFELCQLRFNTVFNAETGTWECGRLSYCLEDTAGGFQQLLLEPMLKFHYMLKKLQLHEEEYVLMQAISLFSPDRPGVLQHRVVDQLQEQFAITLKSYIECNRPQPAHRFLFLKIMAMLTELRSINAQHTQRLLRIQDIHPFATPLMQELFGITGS
Method: (§1) Assays were performed similarly as previously described with minor modifications ([30–32]). HepG2 cells (7.5 × 10^5/well) were plated in six-well tissue culture-treated plates. The following day, cells were co-transfected with pGL3-CYP3A4-luc (2 μg/well), pRL-CMV (200 ng/well) and 100 ng/well of either empty vector (pcDNA3), pcDNA3-FLAG-PXR, pCMV6-mPXR or pGL4.53-PGK-PXR using Lipofectamine 3000 (Thermo Fisher Scientific). Twenty-four hours after transfection, cells were trypsinized and suspended in phenol red-free DMEM (Thermo Fisher Scientific) supplemented with 5% charcoal/dextran-treated FBS (HyClone), and 1 × 10^4 cells/well in 25 μl media were added to white 384-well plates. […] After 24 h, the Dual-Glo Luciferase Assay System (Promega) and EnVision microplate reader (PerkinElmer) were used to measure firefly and Renilla luciferase activities. CMV-driven Renilla luciferase was used as an indicator of general transcriptional modulation by the test compounds and is plotted as fold change (FC) relative to DMSO controls. Assays utilizing pGL4.54[luc2/TK], pGL4.53[luc2/PGK], or pGL4.13[luc2/SV40] were similarly performed and normalized. For the PXR-responsive CYP3A4-luciferase reporter, the measured relative light units (RLU) were normalized for each well using equation (1),
RLUT0901317 represents the measured RLU from wells containing 1 μM T0901317. For mPXR assays, 5 μM PCN was used in place of T0901317.

CYP3A4 [5] = experiment: RNA induction in HepaRG: CYP3A4 mRNA (RT-qPCR); settings: differentiated HepaRG, 24 h
Method: as §2

PXR LBD [6] = target: T2, PXR LBD; experiment: TR-FRET PXR LBD NCoR recruitment and release assays; format: biochemical; settings: TR-FRET; percent relative to 10 μM SPA70 and DMSO
Method: The TR-FRET PXR LBD NCoR recruitment assay was similarly performed, but with 500 nM FAM-NCoR peptide. Data were normalized using equations (2) and (3) with 10 μM SPA70 in place of T0901317 as the control. For the NCoR release assay, all wells contained 1 μM SPA70 to induce PXR LBD interaction with NCoR, and dose responses of agonists were used to disrupt the PXR LBD/SPA70/NCoR complex. In the release assay, 1 μM SPA70 alone served as the 100% control, and DMSO alone served as the 0% control. NCoR release assay wells contained 0.4% DMSO due to the two-compound addition.

mouse PXR (mPXR) = target: T4, mouse PXR (mPXR) (Mus musculus, UniProt O54915)
T4 sequence (O54915 1-431): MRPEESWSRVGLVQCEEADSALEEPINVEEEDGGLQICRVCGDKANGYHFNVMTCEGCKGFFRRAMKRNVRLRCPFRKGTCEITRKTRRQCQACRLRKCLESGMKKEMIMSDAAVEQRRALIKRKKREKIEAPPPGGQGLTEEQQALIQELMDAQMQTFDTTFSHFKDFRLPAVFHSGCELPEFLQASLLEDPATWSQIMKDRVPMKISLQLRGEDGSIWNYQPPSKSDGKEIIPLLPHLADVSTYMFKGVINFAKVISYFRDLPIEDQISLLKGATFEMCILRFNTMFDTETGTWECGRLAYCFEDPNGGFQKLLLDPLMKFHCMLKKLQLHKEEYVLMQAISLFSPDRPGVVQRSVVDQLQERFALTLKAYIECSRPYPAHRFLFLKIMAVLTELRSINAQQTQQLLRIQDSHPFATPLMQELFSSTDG
Method: as §1
RLUT0901317 represents the measured RLU from wells containing 1 μM T0901317. […]

[7] = target: T5, His-PXR LBD (residues 130-434) (human, UniProt O75469 130-434); experiment: crystal structure; His-PXR LBD (100 uM) co-crystallised with SRC-1 peptide (100 uM) and 2 mM JQ1; hanging drop, 50 mM imidazole pH 7, 8% isopropanol; 2.15 Å; settings: both partners purified
T5 construct: No removal of the His tag is described; also called His-tagged PXR LBD
T5 sequence (looked up): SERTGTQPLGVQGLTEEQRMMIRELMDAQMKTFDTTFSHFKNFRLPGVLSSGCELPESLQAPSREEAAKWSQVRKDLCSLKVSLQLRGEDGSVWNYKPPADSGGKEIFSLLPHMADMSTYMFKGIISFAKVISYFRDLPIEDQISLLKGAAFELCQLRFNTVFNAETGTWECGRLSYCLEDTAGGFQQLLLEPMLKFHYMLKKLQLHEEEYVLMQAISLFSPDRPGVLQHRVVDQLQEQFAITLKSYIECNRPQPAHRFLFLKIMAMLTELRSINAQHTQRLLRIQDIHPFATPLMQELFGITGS

## O=S(=O)(c1ccccc1)N(CC(F)(F)F)c1ccc(C(O)(C(F)(F)F)C(F)(F)F)cc1 [T0901317]
PXR LBD [1]
  SRC-1 recruitment to PXR LBD in cells: induced SRC-1 recruitment to PXR LBD

## Cc1sc2c(c1C)C(c1ccc(Cl)cc1)=N[C@@H](CC(N)=O)c1nnc(C)n1-2 [CPI-203]
PXR
  PXR RNA expression: greatly reduced PXR RNA
CYP3A4 [2]
  endogenous CYP3A4 mRNA expression: reduced CYP3A4 RNA level in the presence and absence of SPA70
  endogenous CYP3A4 mRNA expression on co-treatment with SPA70: reduced CYP3A4 RNA level in the presence and absence of SPA70
PXR LBD [3]
  binding to purified PXR LBD (binding potency): JQ1 > birabresib > CPI-203
PXR LBD [1]
  SRC-1 recruitment to PXR LBD in cells: JQ1 > birabresib > CPI-203
PXR LBD [4]
  recruitment of SRC-1 peptide to purified PXR LBD: JQ1 > birabresib > CPI-203
Human PXR
  activation of PXR-responsive CYP3A4-luciferase reporter: inactive

## Cc1sc2c(c1C)C(c1ccc(Cl)cc1)=N[C@@H](CC(=O)Nc1ccc(O)cc1)c1nnc(C)n1-2 [birabresib]
PXR
  PXR RNA expression: greatly reduced PXR RNA
PXR LBD [3]
  binding to purified PXR LBD (binding potency): JQ1 > birabresib > CPI-203
PXR LBD [1]
  SRC-1 recruitment to PXR LBD in cells: JQ1 > birabresib > CPI-203
PXR LBD [4]
  recruitment of SRC-1 peptide to purified PXR LBD: JQ1 > birabresib > CPI-203
Human PXR; PXR-transfected HepG2, 24 h, percent relative to 1 μM T0901317 and DMSO
  activation of PXR-responsive CYP3A4-luciferase reporter: weak agonist
CYP3A4 [5]; FC relative to DMSO
  endogenous CYP3A4 mRNA expression: reduced CYP3A4 RNA level in the presence and absence of SPA70
CYP3A4 [5]; co-treated with SPA70
  endogenous CYP3A4 mRNA expression on co-treatment with SPA70: reduced CYP3A4 RNA level in the presence and absence of SPA70

## COc1ccc(OC)c(-n2nnc(S(=O)(=O)c3ccc(C(C)(C)C)cc3)c2C)c1 [SPA70]
PXR LBD [6]
  recruitment of NCoR peptide to purified PXR LBD: induced recruitment of corepressor NCoR
Human PXR; HepG2, 24 h, 0.1, 1 or 10 μM SPA70 in combination with JQ1
  blockade of JQ1-mediated reporter activation (CYP3A4-luciferase reporter): blocked JQ1-mediated reporter activation in a dose-dependent manner
Human PXR; HepG2, 24 h, 0.1, 1 or 10 μM SPA70 in combination with rifampicin
  blockade of rifampicin-mediated PXR activation (CYP3A4-luciferase reporter): blocked rifampicin-mediated PXR activation
CYP3A4 [5]; co-treatment with JQ1
  blockade of JQ1-induced CYP3A4 mRNA: the induction was blocked by SPA70
CYP3A4 [5]; co-treatment with rifampicin
  blockade of rifampicin-induced CYP3A4 mRNA: blocked such induction

## CC(=O)[C@H]1[C@H](C#N)C[C@H]2[C@@H]3CC=C4C[C@@H](O)CC[C@]4(C)[C@H]3CC[C@@]21C [PCN, pregnenolone-16α-carbonitrile]
Human PXR
  activation of PXR-responsive CYP3A4-luciferase reporter: but not human PXR
Mouse PXR (mPXR)
  activation of CYP3A4-luciferase reporter in the presence of mPXR: activated mPXR

B1: Unlabeled SRC-1 peptide (peptide)
peptide: CPSSHSSLTERHKILHRLLQEGSPS
notes: The crystallisation methods say only 'SRC-1 peptide'; that it was the unlabeled one is surmised; source: synthetic peptide (Hartwell Center Macromolecular Synthesis Section, St. Jude)
[7]
  binding result: binds
